The text below walks through data of PMC8270315, “Combination of Heme Oxygenase-1 Inhibition and Sigma Receptor Modulation for Anticancer Activity” (Molecules, 2021).

One test concerns the target T1, HO-1 (Rattus norvegicus, UniProt P06762).
T1 construct: selected in order to use the most native (i.e., closest to in vivo) forms of HO-1; from tissue; host or cells: spleen microsomal fraction of male Sprague-Dawley rats
T1 sequence (P06762 1-289): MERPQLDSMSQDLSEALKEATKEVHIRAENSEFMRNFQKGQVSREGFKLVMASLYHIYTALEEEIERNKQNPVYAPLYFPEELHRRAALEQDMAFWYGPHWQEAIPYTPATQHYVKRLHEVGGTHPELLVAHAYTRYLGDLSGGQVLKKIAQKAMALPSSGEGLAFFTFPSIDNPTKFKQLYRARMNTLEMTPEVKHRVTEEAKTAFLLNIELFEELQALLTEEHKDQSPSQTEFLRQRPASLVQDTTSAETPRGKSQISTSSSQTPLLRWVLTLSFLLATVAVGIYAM
Briefly: HO-1 inhibition, bilirubin formation in rat spleen microsomal fraction. Format: biochemical. As to conditions: Table S1. As to the method:
The new HO-1/σRs hybrids 1–4 were tested to evaluate their HO-1 inhibitory activity. The enzyme was obtained from the microsomal fractions of rat spleen. Determination of HO-1 activity was performed by measuring the bilirubin formation using the difference in absorbance at 464–530 nm, as reported in the experimental section. Compounds LS/0, LS4/28, LS6/42 and azalanstat were used as reference substances. We focused our attention on HO-1, since only this inducible isoform is involved in tumorigenesis and in tumor progression.
Microsomal fractions obtained from rat spleen were used as sources of HO-1. Microsomal preparations obtained by differential centrifugation, were selected in order to use the most native (i.e., closest to in vivo) forms of HO-1. The experiments reported in the present paper complied with current Italian law and met the guidelines of the Institutional Animal Care and Use Committee of Ministry of Health (Directorate General for Animal Health and Veterinary Medicines) (Italy). The experiments were performed in male Sprague–Dawley albino rats (150 g body weight and age 45 d). They had free access to water and were kept at room temperature with a natural photo-period (12 h light, 12 h dark cycle). For measuring HO-1 activities, each rat was sacrificed and their spleens were excised and weighed. A homogenate (15%, w/v) of spleens pooled from four rats was prepared in ice-cold HO-homogenizing buffer (50 mM Tris buffer, pH 7.4, containing 0.25 M sucrose) using a Potter–Elvehjem homogenizing system with a Teflon pestle. The microsomal fraction of rat spleen homogenate was obtained by centrifugation at 10,000× g for 20 min at 4 °C, followed by centrifugation of the supernatant at 100,000× g for 60 min at 4 °C. The 100,000g pellet (microsomes) was resuspended in an 100 mM potassium phosphate buffer, pH 7.8, containing 2 mM MgCl2 with a Potter–Elvehjem homogenizing system. The rat spleen microsomal fractions were divided into equal aliquots, placed into microcentrifuge tubes, and stored at −80 °C for up to 2 months.
Biliverdin reductase was obtained from liver cytosol. Rat liver was perfused through the hepatic portal vein with cold 0.9% NaCl, then it was cut and flushed with 2 × 20 mL of ice-cold PBS to remove all of the blood. Liver tissue was homogenized in 3 volumes of solution containing 1.15% KCl w/v and Tris buffer 20 mM, pH 7.8 on ice. Homogenates were centrifuged at 10,000× g, for 20 min at 4 °C. Supernatant was decanted and centrifuged at 100,000× g for 1 h at 4 °C to sediment the microsomes. The 100,000× g supernatant was saved and then stored in small amounts at −80 °C after its protein concentration was measured.
The HO-1 activities were determined by measuring the bilirubin formation using the difference in absorbance at 464–530 nm. Reaction mixtures (500 µL) contained 20 mM Tris–HCl, pH 7.4, (1 mg/mL) microsomal extract, 0.5–2 mg/mL biliverdin reductase, 1 mM NADPH, 2 mM glucose 6-phosphate (G6P), 1 U G6P dehydrogenase, 25 μM hemin, and 10 µL of DMSO (or the same volume of DMSO solution of test compounds to a final concentration of 100, 10, and 1 µM). Samples were incubated for 60 min at 37 °C in a circulating water bath in the dark. Reactions were stopped by adding the same volume of chloroform. After recovering the chloroform phase, the amount of bilirubin formed was measured with a double-beam spectrophotometer as OD464–530 nm (extinction coefficient, 40 mM/cm^−1 for bilirubin). […]

Another test addresses T2, σ1R (Cavia porcellus, UniProt Q60492).
T2 construct: The thawed membrane preparation of guinea pig brain cortex was incubated with increasing concentrations of test compounds; from tissue; host or cells: brain cortex membranes of male Dunkin-Hartley guinea pigs (animals from ENVIGO RMS S.R.L.)
As to the kind of experiment: σ1R radioligand binding assay, [3H](+)-pentazocine, guinea pig brain cortex membranes. As to conditions: for inhibition at 10 µM: read-out: σ1R % of inhibition at 10 μM.

Test [1] deals with T3, σ2R (Rattus norvegicus, UniProt Q5U3Y7).
T3 construct: from tissue; host or cells: liver membranes of Sprague-Dawley rats (animals from ENVIGO RMS S.R.L.)
T3 sequence (Q5U3Y7 1-176): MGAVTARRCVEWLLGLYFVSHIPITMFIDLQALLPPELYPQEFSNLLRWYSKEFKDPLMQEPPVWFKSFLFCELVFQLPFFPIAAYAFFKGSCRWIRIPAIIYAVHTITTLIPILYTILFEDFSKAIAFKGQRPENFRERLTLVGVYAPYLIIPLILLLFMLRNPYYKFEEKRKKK
As to the kind of experiment: σ2R radioligand binding assay, [3H]DTG, rat liver membranes.
Protocol: (§1) All new synthesized HO-1/σ hybrids 1–4 were evaluated for affinity at both the σ1R and the σ2R, through radioligand binding assay.
(§2) Brain and liver homogenates for σ1R and σ2R binding assays were prepared from male Dunkin–Hartley guinea pigs and Sprague–Dawley rats, respectively, (ENVIGO RMS S.R.L., Udine, Italy) as previously reported [54]. In vitro σ1R ligand binding assays were carried out in Tris buffer (50 mM, pH 7.4) for 150 min at 37 °C. […] Bound and free radioligand were separated by fast filtration under reduced pressure using a Millipore filter apparatus through Whatman GF 6 glass fiber filters, which were presoaked in a 0.5% poly(ethyleneimine) water solution. Each filter paper was rinsed three times with ice-cold Tris buffer (50 mM, pH 7.4), dried at rt, and incubated overnight with scintillation fluid into pony vials. The bound radioactivity has been determined using a liquid scintillation counter (Beckman LS 6500) [55]. In vitro σ2R ligand binding assays were carried out in Tris buffer (50 mM, pH 8.0) for 120 min at rt. […] Bound and free radioligand were separated by fast filtration under reduced pressure using a Millipore filter apparatus through Whatman GF 6 glass fiber filters, which were presoaked in a 0.5% poly(ethyleneimine) water solution. Each filter paper was rinsed three times with ice-cold Tris buffer (10 mM, pH 8), dried at rt, and incubated overnight with scintillation fluid into pony vials. The bound radioactivity was determined using a liquid scintillation counter (Beckman LS 6500) [56]. The Ki-values were calculated with the program GraphPad Prism® 7.0 (GraphPad Software, San Diego, CA, USA). The Ki-values are given as mean value ± SD from at least two independent experiments performed in duplicate.

The next test concerns U87MG cells. As to the kind of experiment: MTT cell viability assay, U87MG cells. Format: cell-based, human. As to conditions: for effect on U87MG cell viability (in words): U87MG, 1, 10 and 50 μM; for effect of co-administration on U87MG cell viability (in words): 10 μM σR ligand plus 10 μM HO-1 inhibitor, compared with σR ligand alone.
For a further test, the system named is DU145 cells. Briefly: MTT cell viability assay, DU145 cells. Format: cell-based, human. As to conditions: DU145, single compound 10 μM, 72 h. An excerpt:
In some types of human prostate and brain cancers, both HO-1 and σRs are overexpressed, influencing cancer cell proliferation. Consequently, σR ligands and HO-1 inhibitors may have anticancer activity. Literature data highlight the potential antiproliferative activity of various σ1R ligands in highly diffusive glioblastoma and prostate cancer cells, likely by interfering with the progression of cell cycle and decreasing the migration of cancer cells. Likewise, HO-1 inhibition hinders cancer progression, mainly by decreasing CO-mediated angiogenesis and disrupting the antioxidant HO-1 activity. […] Cytotoxicity of all new and previous synthesized compounds were evaluated in vitro via MTT assay. The cell viability of DU145 and U87-MG cells was assessed after 72 h of continuous treatment with all tested compounds, at the concentrations of 1, 10, and 50 μM. […]
The cytotoxicity of HO-1 inhibitors and σR ligands previous synthesized compounds as well as novel HO-1/σR hybrids compounds were evaluated. The effect on cell viability was assessed by performing MTT assay. […] Finally, dimethyl-sulfoxide (DMSO) was used to dissolve formazan salts and absorbance was measured at 450 nm in a microplate reader (Biotek Synergy-HT). […]

The test system of a further test is HO-2. Set-up: method as in PMID 29783634, PMID 23867390, PMID 32056044, PMID 32168943, PMID 32222619. As to conditions: Figure 1, previously demonstrated; cited from earlier work.
The target in test [2] is T3, σ2R. As to conditions: Table S1; ref [4, 5] of the supplement; cited from earlier work.

Read-outs that look alike come from different tables or passages of the source.

T2 sequence (Q60492 whole entry): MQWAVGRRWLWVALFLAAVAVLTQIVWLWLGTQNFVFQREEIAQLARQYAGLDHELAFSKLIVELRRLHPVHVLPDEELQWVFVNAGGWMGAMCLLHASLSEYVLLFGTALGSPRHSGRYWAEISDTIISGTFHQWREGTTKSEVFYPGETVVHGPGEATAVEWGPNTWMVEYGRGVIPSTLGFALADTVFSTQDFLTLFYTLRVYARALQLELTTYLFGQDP
Protocol for U87MG cells: In particular, we used the human glioblastoma cell line U87MG (ATCCC number #HTB-14) and the prostate cancer cell line DU145 (ATCC HTB-81). These cell lines were obtained from the American Type Culture Collection (ATCC, Rockville, Md., USA). Cells were cultured in Dulbecco’s modified Eagle’s medium (DMEM) supplemented with 10% of heat-inactivated fetal bovine serum (FBS), 100 U/mL penicillin and 100-μg/mL streptomycin (Sigma-Aldrich, Steinheim, Germany) and incubated at 37 °C in a humidified atmosphere with 5% CO2.
The cytotoxicity of HO-1 inhibitors and σR ligands previous synthesized compounds as well as novel HO-1/σR hybrids compounds were evaluated. The effect on cell viability was assessed by performing MTT assay. Cells were seeded into 96-well plates at a density of 7.0 × 10^3 cells/well in 100 µL of culture medium. The day after, cells were treated with each molecule at three different concentrations (1 µM, 10 µM and 50 µM) for 72 h. Following treatments, 0.5 mg/mL of 3-[4,5-dimethylthiazol-2-yl]-2,5-diphenyltetrazolium bromide (MTT) (Sigma-Aldrich) was added to each well and incubated for 4 h at 37 °C. Finally, dimethyl-sulfoxide (DMSO) was used to dissolve formazan salts and absorbance was measured at 450 nm in a microplate reader (Biotek Synergy-HT). Six replicate wells were used for each group.
Protocol for σ1R: as §1, §2

`O=C(c1ccc(OCCCCn2ccnc2)cc1)N1CCN(Cc2ccccc2)CC1` [Compound 1, (4-(4-(1H-imidazol-1-yl)butoxy)phenyl)(4-benzylpiperazin-1-yl)methanone] displayed an IC50 on HO-1 of 230 ± 5.1 µM. At σ1R, the Ki is above 10 µM and the inhibition at 10 µM stood at 90%. On σ2R [1], the Ki was above 10 µM and the inhibition at 10 µM worked out at 54%. The “effect on U87MG cell viability (in words)” value in the test on U87MG cells (72 h, MTT) is reported as “reduced U87MG cell viability at all concentrations, especially at 50 μM”.
Compound `O=C(Cc1ccc(OCCCCn2ccnc2)cc1)N1CCN(Cc2ccccc2)CC1` [Compound 2, 2-(4-(4-(1H-imidazol-1-yl)butoxy)phenyl)-1-(4-benzylpiperazin-1-yl)ethan-1-one] had an IC50 against HO-1 of 216 ± 3.6 µM. Besides, on σ1R, the Ki was above 10 µM and the inhibition at 10 µM was 73%. On σ2R [1], this compound yielded a Ki above 10 µM and an inhibition at 10 µM of 67%. Further, in the test on U87MG cells (72 h, MTT), the “effect on U87MG cell viability (in words)” value is “reduced U87MG cell viability at all concentrations, especially at 50 μM”.
As for `O=C(CCc1ccc(OCCCCn2ccnc2)cc1)N1CCN(Cc2ccccc2)CC1` [Compound 3, 3-(4-(4-(1H-imidazol-1-yl)butoxy)phenyl)-1-(4-benzylpiperazin-1-yl)propan-1-one], on HO-1, half-maximal inhibition (IC50) was put at 162 ± 1.8 µM. Moreover, at σ1R, the Ki was above 10 µM and the inhibition at 10 µM is 78%. At σ2R [1], this compound had a Ki above 10 µM and an inhibition at 10 µM of 66%. The “effect on U87MG cell viability (in words)” value in the test with U87MG cells (72 h, MTT) is listed as “less efficacy than the control at 1 μM”.
In the case of `O=C(CCCc1ccc(OCCCCn2ccnc2)cc1)N1CCN(Cc2ccccc2)CC1` [Compound 4, 4-(4-(4-(1H-imidazol-1-yl)butoxy)phenyl)-1-(4-benzylpiperazin-1-yl)butan-1-one], on HO-1, inhibition was half-maximal at 87.7 ± 1.3 µM (IC50) and the “IC50 HO-1” value is reported as “the most potent compound among the series”. Moreover, on σ1R, the Ki is above 10 µM and the inhibition at 10 µM was determined as 55%. For the same compound, at σ2R [1], the affinity corresponds to a Ki of 4.62 µM. Moreover, the “effect on U87MG cell viability (in words)” value in the test with U87MG cells (72 h, MTT) is reported as “reduced U87MG cell viability at all concentrations, especially at 50 μM”.
As to `O=C(CCCN1CCC(O)(c2ccc(Cl)cc2)CC1)c1ccc(F)cc1` [Haloperidol, haloperidol], the “reduction of cell viability” value in the test with DU145 cells was “about 50%”. Besides, in the test with U87MG cells (72 h, MTT), the “effect on U87MG cell viability (in words)” value was “high efficacy in downregulation of cell viability”.
On to `OC(Cn1ccnc1)c1cccc(-c2ccccc2)c1` (stereo not shown) [LS4/28], for which the “effect on U87MG cell viability (in words)” value in the test with U87MG cells (72 h, MTT) is recorded as “did not affect U87MG cell viability”. The half-maximal inhibitory concentration (IC50) with HO-2 was above 100 µM.
In the case of `OC(Cn1ccnc1)c1ccc(CCc2ccc(Br)cc2)cc1` (stereo not shown) [LS6/42], in the test with U87MG cells (U87MG, single compound 10 μM, 72 h, MTT), the “reduction of cellular viability” value is recorded as “about 50%”. The concentration for half-maximal inhibition (IC50) with HO-2 is above 100 µM.
As to `Brc1cccc(OCCCCn2ccnc2)c1` [LS/0], the “effect on U87MG cell viability (in words)” value with U87MG cells (72 h, MTT) is “significantly reduce cell viability only at 50 μM”. Besides, the 50% inhibitory concentration (IC50) in the test with HO-2 is 2.2 ± 0.2 µM.
Regarding `COc1ccc(CN2CCN(C(=O)CCc3ccccc3)CC2)cc1` [RFB/13], in the test with U87MG cells (U87MG), the “effect of co-administration on U87MG cell viability (in words)” value is “significantly reduced for compound RFB/13 only when combined with LS4/28 or LS6/42”. In the test on U87MG cells (72 h, MTT), the “effect on U87MG cell viability (in words)” value was “significantly reduce cell viability only at 50 μM”.
In the case of `COc1ccc(CN2CCN(C(=O)CCC3CCCCC3)CC2)cc1` [SI1/13], the “effect of co-administration on U87MG cell viability (in words)” value with U87MG cells (U87MG) was “increased by the addition of all the tested HO-1 inhibitors”. In addition, in the test with U87MG cells (72 h, MTT), the “effect on U87MG cell viability (in words)” value is “high efficacy in downregulation of cell viability”. In addition, the Ki at σ2R [2] was 1.42 µM.
